{
  "source": "patent US5807745A",
  "about": "“Method of inhibiting PADGEM-mediated or ELAM-1-mediated leukocyte adhesion using an inhibitor comprising a Le^x core component” (New England Medical Center Hospitals, Inc., priority 1995, dated 1998)",
  "molecules": {"B1": {"name": "purified PADGEM: purified platelet activation dependent granule-external membrane protein (protein, UniProt P16109 42-830, looked up)", "P-selectin": "WTYHYSTKAYSWNISRKYCQNRYTDLVAIQNKNEIDYLNKVLPYYSSYYWIGIRKNNKTWTWVGTKKALTNEAENWADNEPNNKRNNEDCVEIYIKSPSAPGKWNDEHCLKKKHALCYTASCQDMSCSKQGECLETIGNYTCSCYPGFYGPECEYVRECGELELPQHVLMNCSHPLGNFSFNSQCSFHCTDGYQVNGPSKLECLASGIWTNKPPQCLAAQCPPLKIPERGNMTCLHSAKAFQHQSSCSFSCEEGFALVGPEVVQCTASGVWTAPAPVCKAVQCQHLEAPSEGTMDCVHPLTAFAYGSSCKFECQPGYRVRGLDMLRCIDSGHWSAPLPTCEAISCEPLESPVHGSMDCSPSLRAFQYDTNCSFRCAEGFMLRGADIVRCDNLGQWTAPAPVCQALQCQDLPVPNEARVNCSHPFGAFRYQSVCSFTCNEGLLLVGASVLQCLATGNWNSVPPECQAIPCTPLLSPQNGTMTCVQPLGSSSYKSTCQFICDEGYSLSGPERLDCTRSGRWTDSPPMCEAIKCPELFAPEQGSLDCSDTRGEFNVGSTCHFSCDNGFKLEGPNNVECTTSGRWSATPPTCKGIASLPTPGVQCPALTTPGQGTMYCRHHPGTFGFNTTCYFGCNAGFTLIGDSTLSCRPSGQWTAVTPACRAVKCSELHVNKPIAMNCSNLWGNFSYGSICSFHCLEGQLLNGSAQTACQENGHWSTTVPTCQAGPLTIQEALTYFGGAVASTIGLIMGGTLLALLRKRFRQKDDGKCPLNPHSHLGTYGVFTNAAFDPSP"}},
  "key": {"[1]": {"tested_on": "adherence of activated platelets to neutrophils (PADGEM-mediated)", "experiment": "Phase-contrast cell adhesion assay: thrombin-activated platelets with neutrophils", "format": "cell-based, human", "conditions": "LNF isomers, FIG. 6", "method": "Platelets were isolated by gel filtration from fresh anticoagulated blood obtained from normal human donors (Hsu-Lin et al., J. Biol. Chem., 259: 9121-9126 (1984)). Activated platelets were prepared by incubating cells without stirring for 20 minutes at 22° C. with thrombin at a final concentration of 0.25 U/ml. Fresh platelets were used in cell adhesion assays within 30 minutes of preparation.\nNeutrophils were prepared by the method of English and Anderson (J. Immunol. Method, 5: 249-252 (1974)). The neutrophil preparations were greater than 95% pure by light microscopy. Monocytes were prepared by washing the mono-nuclear leukocyte fraction twice with human serum-5 mM EDTA and incubating the cells in RPMI 1640--10% fetal calf serum in sterile […] dishes for 2 hours at 37° C. The dishes were washed three times with PBS at 37° C. to remove nonadherent cells. PBS at 0° C. was added, and the cells were incubated at 4° C. for 1 hour. Adherent cells were gently detached with a rubber policeman, washed in PBS, and resuspended in RPMI 1640--1% fetal calf serum. Lymphocytes were obtained by washing the nonadherent cells with PBS and resuspending these cells in RPMI 1640--1% fetal calf serum. The purity of these preparations was established to be greater than 90% by light microscopy using Wright esterase and nonspecific esterase stains.\nTwenty microliters of platelet suspension (2×10^8 /ml) was mixed with 20 μl of cell suspension (2×10^6 /ml) and incubated for 20 minutes at 22° C. in a microfuge tube. An aliquot of the cell suspension was then in a Neubauer chamber and evaluated by light microscropy using an Olympus model BH-2 microscope. Three samples from each assay were evaluated by counting 200 cells and scoring the percentage of cells with two or more adherent platelets (Jungi et al., Blood 67: 629-636 (1986)). Antibody inhibition studies were performed by preincubating cells (20 μl; 3×10^6 /ml) with 20 μl of antibody solution for 20 minutes at 22° C. Subsequently, 20 μl of platelet suspension was added, and the mixture was incubated for 20 minutes at 22° C. Samples were analyzed as above.\nTo identify the PADGEM recognition site on leukocytes that mediates the binding of activated platelets, monoclonal antibodies directed at various antigens on the surface of monocytes and neutrophils were tested for their ability to inhibit the interaction of these cells with activated platelets, using the phase-contrast cell adhesion assay described in Example 2 (FIG. 1 and FIG. 2). The antibodies were raised against various leukocytes and myeloid cell lines and are directed at leukocyte antigens. […] The percentage of cells displaying two or more adherent platelets was determined as described in Example 2."}, "[2]": {"tested_on": "glycoprotein IIb-IIIa dependent platelet aggregation", "experiment": "ADP-induced platelet aggregation", "format": "cell-based, human", "conditions": "specificity control", "description": "To address the possibility of a nonspecific effect of LNF III on cell-cell interaction involving platelets, the effect of LNF III on ADP-induced platelet aggregation was examined."}, "cell viability": {"tested_on": "cell viability", "experiment": "Cell viability by trypan blue exclusion", "format": "cell-based", "conditions": "trypan blue exclusion method"}, "[3]": {"tested_on": "binding of HL60 cells to COS/PADGEM cells", "experiment": "COS cell-PADGEM adhesion assay with labelled HL60 cells", "format": "cell-based, human", "method": "COS cells (1×10^5) were transfected with 40 μg of the resulting PADGEM expression vector by calcium phosphate precipitation. Coverslips (12×12 mm) were added to each culture. After 48 hours of growth in DMEM--10% fetal calf serum, the COS cells were confluent.\nHL60 cells (1×10^7), maintained in culture, were washed and resuspended in 0.5 ml of serum-free RPMI 1640. The cells were labeled with 270 μCi of ^111 In oxine (Callow et al., Arch. Surg., 117: 1447-1455 (1982)) and 10 μg of bis-carboxyethyl-carboxyfluorescein (Kolber et al., J. Immunol. Meth., 108: 255-264 (1988)) by incubation at 37° C. for 30 minutes. After washing with RPMI 1640--1% bovine serum albumin, the cells (1×10^6) were incubated with the coverslips containing confluent COS cell transfectants, in the presence or absence of LNF isomers, for 20 minutes at 37° C. The coverslips were washed with RPMI 1640, and duplicate coverslips were assayed for ^111 In activity. Alternatively, samples were evaluated for HL60 cell adherence by fluorescence and phase-contrast microscopy using a Zeiss Axioscope microscope in a blind assay. Inhibition of the binding of COS/PADGEM cells to U937 cells by the antibody 80H5 was performed in experiments identical to the procedure described above.\nThe results of a COS cell-PADGEM adhesion assay, in which the binding of ^111 In and bis-carboxyethyl-carboxyfluorescein-lableled HL60 cells to COS/PADGEM cells was monitored by assaying ^111 In activity (Example 2), are shown in FIG. 7. […] The inhibitory effect of LNF II was more apparent when the LNF to PADGEM ratio was high. […] It is possible that minor contamination of the LNF II preparation with LNF III can account for the inhibitory activity observed.\nThe inhibitory effects of LNF I, II, and III on the interaction of HL60 cells and COS/PADGEM was also studied morphologically in a blind assay. In these experiments, the binding of fluorescently labeled HL60 cells to COS/PADGEM cells was scored (Example 2)."}, "Mel-14": {"tested_on": "Mel-14", "conditions": "literature report; cited from earlier work"}, "PADGEM": {"tested_on": "PADGEM", "conditions": "literature reports; cited from earlier work"}},
  "data": [
    {"molecule": "CC(=O)N[C@H]1[C@H](O[C@H]2[C@@H](O)[C@@H](CO)O[C@@H](O[C@H]3[C@H](O)[C@@H](O)C(O)O[C@@H]3CO)[C@@H]2O)O[C@H](CO)[C@@H](O[C@@H]2O[C@H](CO)[C@H](O)[C@H](O)[C@H]2O)[C@@H]1O[C@@H]1O[C@@H](C)[C@@H](O)[C@@H](O)[C@@H]1O", "note": "(some centres unmarked) [LNF III, Galβ1-4(Fucα1-3)GlcNAcβ1-3Galβ1-4Glc]", "values": [
      {"measurement": "IC50", "setting": "[1]; Homo sapiens, read-out: half-maximal inhibition of the adherence of activated platelets to neutrophils", "value": "~50", "unit": "µg/mL"},
      {"measurement": "inhibitory activity on adherence of activated platelets to neutrophils", "setting": "[1]; direct cell adhesion assay", "value": "effective inhibitor"},
      {"measurement": "effect on ADP-induced platelet aggregation", "setting": "[2]", "value": "equivalent in the presence or absence of LNF III"},
      {"measurement": "cell viability", "setting": "cell viability", "value": "did not alter cell viability"},
      {"measurement": "inhibition of binding of radiolabeled HL60 cells to COS/PADGEM cells", "setting": "[3]; 111In activity, FIG. 7", "value": "significantly inhibited"},
      {"measurement": "inhibition of binding of fluorescently labeled HL60 cells to COS/PADGEM cells", "setting": "[3]; scored morphologically in a blind assay", "value": "significant inhibitory activity"}
    ]},
    {"molecule": "O=P(O)(O)OC[C@H]1OC(O)[C@@H](O)[C@@H](O)[C@@H]1O", "note": "(some centres unmarked) [mannose 6-phosphate]", "values": [
      {"measurement": "inhibition of Mel-14-mediated lymphocyte-endothelial cell interaction", "setting": "Mel-14", "value": "inhibit"}
    ]},
    {"molecule": "B1", "values": [
      {"measurement": "inhibition of PADGEM-mediated binding of activated platelets to leukocytes", "setting": "PADGEM", "value": "inhibited"}
    ]}
  ]
}
